{"source": "patent US10334854B2", "about": "“Herbicide combinations comprising glufosinate and indaziflam” (BAYER CROPSCIENCE AKTIENGESELLSCHAFT, priority 2016, dated 2019)", "key": {"[1]": {"tested_on": "monocotyledonous and dicotyledonous harmful plant species", "conditions": "stated as known; cited from earlier work"}, "Stellaria media": {"tested_on": "Stellaria media", "experiment": "Greenhouse pot trial, post-emergence herbicidal activity", "type": "in vivo", "conditions": "single post-emergence treatment, 12 g/ha of indaziflam, BBCH growth stage 11-12", "protocol": "(§1) In separate pots, biological trials were conducted in the greenhouse under identical conditions (apart from the treatment with the different products P1 and P2 mentioned above). Each pot contained the same soil and the same amount of seeds of each of the following weeds (two monocotyledonous and two dicotyledonous harmful plant species (weed species)):\n(§2) Tables 1 to 4 reflect the respective observed herbicidal activity ratings after treatment of the monocotyledonous harmful plant species (BBCH growth stage 11) and dicotyledonous harmful plant species (BBCH growth stage 10) for the different products applied once in post-emergence.\n(§3) The observation period in each case was 40 days after start of treatment with the respective products P1 and P2 mentioned above, both in amounts of 3 L/ha and 5 L/ha, respectively.\n(§4) Tables 5 to 8 reflect the respective observed herbicidal activity ratings after treatment of the monocotyledonous harmful plant species (BBCH growth stage 12-13) and dicotyledonous harmful plant species (BBCH growth stage 12) for the different products applied once in post-emergence. The observation period in each case was 40 days after start of treatment with the respective products P1 and P2 mentioned above, both in amounts of 3 L/ha and 5 L/ha, respectively.\n(§5) Table 9 reflects the post-emergence efficacy of indaziflam [the ratio by weight of the (1*R)-1-fluoroethyl diastereoisomer of indaziflam to the ratio by weight of the (1*S)-1-fluoroethyl diastereoisomer of indaziflam was about 95:5] on the above mentioned weeds (two monocotyledonous and two dicotyledonous harmful plant species (weed species)) AMARE, STEME, LOLMU and POOAN, each at BBCH growth stage 11-12. Indaziflam was used in an amount of 12 g/ha."}, "Lolium multiflorum": {"tested_on": "Lolium multiflorum", "experiment": "Greenhouse pot trial, post-emergence herbicidal activity", "type": "in vivo", "conditions": "single post-emergence treatment, 12 g/ha of indaziflam, BBCH growth stage 11-12", "protocol": "as §1, §2, §3, §4, §5"}, "Poa annua": {"tested_on": "Poa annua", "experiment": "Greenhouse pot trial, post-emergence herbicidal activity", "type": "in vivo", "conditions": "single post-emergence treatment, 12 g/ha of indaziflam, BBCH growth stage 11-12", "protocol": "as §1, §2, §3, §4, §5"}, "Amaranthus retroflexus": {"tested_on": "Amaranthus retroflexus", "experiment": "Greenhouse pot trial, post-emergence herbicidal activity", "type": "in vivo", "conditions": "single post-emergence treatment, 12 g/ha of indaziflam, BBCH growth stage 11-12", "protocol": "as §1, §2, §3, §4, §5"}}, "data": [{"compound": "Cc1ccc2c(c1)[C@H](Nc1nc(N)nc([C@@H](C)F)n1)[C@@H](C)C2", "note": "(mixture of isomers) [indaziflam, N^2-[(1R,2S)-2,3-dihydro-2,6-dimethyl-1H-inden-1-yl]-6-[(1RS)-1-fluoroethyl]-1,3,5-triazine-2,4-diamine]", "values": [{"measurement": "post-emergence efficacy", "setting": "[1]", "result": "insufficient"}, {"measurement": "Regrowth (ratings of herbicidal activity)", "setting": "Stellaria media", "result": "no herbicidal effect"}, {"measurement": "Regrowth (ratings of herbicidal activity)", "setting": "Lolium multiflorum", "result": "no herbicidal effect"}, {"measurement": "Regrowth (ratings of herbicidal activity)", "setting": "Poa annua", "result": "no herbicidal effect"}, {"measurement": "Regrowth (ratings of herbicidal activity)", "setting": "Amaranthus retroflexus", "result": "very weak herbicidal effect starting on day 7 after treatment"}]}]}
